One series concerns the target Histamine (H1) (Homo sapiens, UniProt P35367). Description: Histamine (H1) Binding Activity (Table I).
The target of series [1] is human recombinant H1 histamine receptors (Homo sapiens, UniProt P35367). Description: biochemical. How it is done: (Caliper Life Sciences, Hopkinton, Mass.). […] This study was performed using duplicate samples per data point (n=2).
Series [2] deals with histamine-induced wheal and flare. Description: Wheal and flare further study, intravenous infusion. Type of series: in vivo, rats. The note with it: IV infusion, rats. How it is done:
Briefly, rats received a continuous infusion via the jugular vein catheter for 60 minutes. […] Sixty minutes after the start of the infusion period, the rats were given four (4) interdermal (ID) injections of histamine ([…] in saline; dose 50 μL at 10 μg/rat). […] Twenty minutes after the histamine injections a caliper (Fowler Sylvac Ultra-Cal Mark III) was used to measure the wheal and flare (the diameter of the blue area). Two measurements of the diameter of the blue area at the site of histamine injection were made at 90 degrees from one another. […] Blood samples collected via cardiac puncture were used for diphenhydramine quantitation. The blood samples were placed in vacutainer tubes containing K2 EDTA. The rats were exsanguinated and the brain was rinsed in ice cold saline, wrapped in foil and frozen. The brain and the plasma samples were analyzed for drug content.

Series [3] can be described thus: Pharmacokinetics and oral bioavailability in rats. The note with it: rat, plasma; for Cmax: read-out: Cmax; for half-life: read-out: T ½ (converted). Type of series: in vivo. How it is done:
For oral doses, 5 mg/kg if DPH-equivalent were used. […] Animals were dosed in triplicate by bolus injection to the femoral vein (IV) or oral gavage (PO), and whole blood was collected from the carotid artery from all animals at the appropriate time points for preparation of plasma samples. Quantitation of test article in plasma was performed by LC-MS/MS.

Series [4] is described as follows: Blood-brain barrier penetration, brain:plasma ratio after tail vein injection. The procedure: The four compounds were tested following intravenous injection to the tail vein in rats.
After ensuring a single rat remained viable following a test dose, the rats (4 per condition) were dosed by tail vein injection and were sacrificed one hour later. Blood was collected by cardiac puncture, and brain tissue was collected. Plasma was prepared and brain tissue homogenized to enable quantitation of drug content by LC-MS/MS.
Concentrations of each compound were determined and brain:plasma ratios calculated accordingly.

Series [5] addresses T1, cloned hERG channels stably expressed in HEK cells (Homo sapiens, UniProt Q12809).
The nature of a further series: in vitro. The note with it: human, hepatocytes.
Series [6] concerns the target T1, cloned hERG channels stably expressed in HEK cells. Briefly: hERG current inhibition, electrophysiology. Background: Block of hERG is tested as a sign of cardiac risk.
Another series has as its system guinea pig hearts. Description: In vitro safety pharmacology, guinea pig hearts. Particulars: rat and guinea pig preparations responded similarly.

Where “and” joins values, the source holds several entries; their conditions need not be identical. Equal values may be shown once. Read-outs that look alike come from different tables or passages of the source.

Here are results for two compounds from US20130053400A1, “OLIGOMER-ANTIHISTAMINE CONJUGATES” (priority 2007, published 2013).

Chain of human recombinant H1 histamine receptors (P35367 whole entry, the tested form may be a part): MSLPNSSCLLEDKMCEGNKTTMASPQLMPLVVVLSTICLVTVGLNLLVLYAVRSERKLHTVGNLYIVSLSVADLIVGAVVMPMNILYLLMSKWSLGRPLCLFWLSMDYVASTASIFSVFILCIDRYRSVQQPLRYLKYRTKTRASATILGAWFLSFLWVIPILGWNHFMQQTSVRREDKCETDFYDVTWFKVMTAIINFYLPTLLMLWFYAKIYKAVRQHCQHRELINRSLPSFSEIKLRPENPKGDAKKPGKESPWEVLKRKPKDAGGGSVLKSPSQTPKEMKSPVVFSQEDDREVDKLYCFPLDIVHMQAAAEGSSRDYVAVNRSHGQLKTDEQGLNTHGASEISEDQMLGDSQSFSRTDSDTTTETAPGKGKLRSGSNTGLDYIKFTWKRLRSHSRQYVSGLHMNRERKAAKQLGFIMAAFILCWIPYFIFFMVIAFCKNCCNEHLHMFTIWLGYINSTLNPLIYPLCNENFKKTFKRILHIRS
T1 sequence (Q12809 whole entry): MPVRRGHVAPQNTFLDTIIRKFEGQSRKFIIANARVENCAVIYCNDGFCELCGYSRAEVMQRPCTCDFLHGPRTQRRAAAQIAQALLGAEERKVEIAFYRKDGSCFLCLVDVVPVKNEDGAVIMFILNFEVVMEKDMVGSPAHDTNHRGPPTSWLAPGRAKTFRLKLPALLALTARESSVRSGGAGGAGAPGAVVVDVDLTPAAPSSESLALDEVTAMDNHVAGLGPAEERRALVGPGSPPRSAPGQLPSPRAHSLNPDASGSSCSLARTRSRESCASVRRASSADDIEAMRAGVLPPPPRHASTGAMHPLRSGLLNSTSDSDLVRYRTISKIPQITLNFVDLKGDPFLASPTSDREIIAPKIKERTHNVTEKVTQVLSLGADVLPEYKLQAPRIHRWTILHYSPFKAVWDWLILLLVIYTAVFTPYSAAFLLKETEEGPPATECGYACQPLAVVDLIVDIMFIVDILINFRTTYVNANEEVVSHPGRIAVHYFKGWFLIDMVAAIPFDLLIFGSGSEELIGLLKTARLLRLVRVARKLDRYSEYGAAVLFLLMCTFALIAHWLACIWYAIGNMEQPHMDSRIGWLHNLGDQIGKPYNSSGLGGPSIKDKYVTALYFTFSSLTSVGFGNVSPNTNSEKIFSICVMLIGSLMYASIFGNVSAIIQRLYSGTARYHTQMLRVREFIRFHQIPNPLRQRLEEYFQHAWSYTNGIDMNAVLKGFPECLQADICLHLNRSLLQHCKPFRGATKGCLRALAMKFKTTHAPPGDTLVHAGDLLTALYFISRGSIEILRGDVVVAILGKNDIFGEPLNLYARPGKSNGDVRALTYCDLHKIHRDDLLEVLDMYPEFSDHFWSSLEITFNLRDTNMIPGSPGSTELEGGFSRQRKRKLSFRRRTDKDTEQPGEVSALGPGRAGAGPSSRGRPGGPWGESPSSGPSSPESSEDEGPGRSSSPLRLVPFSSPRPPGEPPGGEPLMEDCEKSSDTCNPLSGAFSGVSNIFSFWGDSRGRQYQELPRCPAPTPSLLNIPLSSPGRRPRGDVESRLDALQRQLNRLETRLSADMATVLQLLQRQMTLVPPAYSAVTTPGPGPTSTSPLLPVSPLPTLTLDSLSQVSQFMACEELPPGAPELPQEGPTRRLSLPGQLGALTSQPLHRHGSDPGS
Chain of Histamine (H1) (P35367 whole entry): as the sequence (P35367 whole entry, the tested form may be a part) above
Method for guinea pig hearts: Guinea pig studies were performed with the objective of determining the potential effects of escalating concentrations conjugates. Measurements for all physiological parameters (PQ, QRS, RR, QT, dLVP/dtmax, dLVP/dtmin) were made manually using EMKA ECG Auto software (QTc [Fridericia^2] was calculated) from intervals of beats manifesting sinus rhythm. Means for all animals receiving the test article were calculated for all concentrations. Plots of mean values for all animals plus the negative control animals were made for all parameters versus concentration. Plots of the positive control were made for all parameters versus concentration. Plots of values of all parameters minus the values for vehicle were made with baseline adjustment.

The IC50 is the concentration that inhibits the measured activity by half. A high value points to weaker potency in that assay. The term Ki denotes the dissociation constant of the complex between target and ligand, obtained from inhibition or displacement. A word on the AUC(0-inf): it is total exposure, with the tail of the curve extrapolated. One may read the Cmax as the maximum level reached in the sampled fluid or tissue. In general, bioavailability refers to the share of a dose that reaches the circulation, judged against a reference dose that is usually intravenous. The term Tmax denotes the time from dosing to the highest level. What is called Kp is tissue or fluid exposure divided by exposure in the circulation. Take `COCCOCCOCCOCCOCCOCCOCCN(C)CCOC(c1ccccc1)c1ccccc1` [mPEG(7)-N-Diphenhydramine, mPEG7-N-diphenhydramine]: the concentration for half-maximal inhibition (IC50) worked out at 1.73 µM at Histamine (H1) and 13 µM in series [6]. In addition, in series [1], the Fold vs parent is 20.1 and 28.7. The Ki in series [1] (Ki) was 0.605 µM and 0.454 µM. Further, the “antihistamine efficacy (wheal size)” value in series [2] was “no efficacy in concentration range tested”. Also, the AUC(0-inf) in [3] (IV, 1 mg/kg DPH-equivalent) turned out to be 0.41 µg·h/mL; in series [3] (oral, 5 mg/kg DPH-equivalent) it was 0.0266 µg·h/mL. Further, in [3] (IV, 1 mg/kg DPH-equivalent), the clearance was 4.71 L/h/kg. For the same compound, the Cmax came out at 0.882 µg/mL in [3] (IV, 1 mg/kg DPH-equivalent) and 0.0413 µg/mL in [3] (oral, 5 mg/kg DPH-equivalent). The half-life in series [3] (IV, 1 mg/kg DPH-equivalent) was 25.8 min; in series [3] (oral, 5 mg/kg DPH-equivalent), 28.2 min; in “in vitro”, 88.4 min. Also, the Vd in series [3] (IV, 1 mg/kg DPH-equivalent, read-out: Vss) was 2.07 L/kg. In addition, in series [3] (oral 5 mg/kg vs IV 1 mg/kg, read-out: F (oral bioavailability)), the bioavailability came to 1.3%. In [3] (oral, 5 mg/kg DPH-equivalent, read-out: Tmax), the Tmax came out at 15 min. Moreover, the “Fold change (vs DPH)” value in series [4] (brain concentration, adjusted for DPH molar dose twice that of conjugates) is recorded as 26. Moreover, the Kp at 1 h in series [4] (rat, brain and plasma, intravenous) lay within 0.2 to 1. For the same compound, the concentration at 1 h amounted to 106 ± 27.1 ng/g in series [4] (rat, brain, intravenous) and 0.545 ± 0.0579 µg/mL in series [4] (rat, plasma, intravenous). This compound also registered an IC50 fold lower in [5] of 4 fold.
For `C=C[C@H]1C[N@@]2CC[C@H]1C[C@@H]2[C@@H](O)c1ccnc2ccc(OC)cc12` [quinidine], in the series with guinea pig hearts, the QT entry is given as “lengthened dramatically”.
